In patent US8742110B2, “Spiroxazolidinone compounds” (Merck Sharp & Dohme Corp., priority 2010, dated 2014):
Counter-ions that a name gives are not always drawn.

Target: SSTR5 (Homo sapiens (Human), UniProt P35346)
Assay: SSTR5 binding assay
Conditions: CHO-K1 membranes expressing cloned human SSTR5
Summary of the method: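 Competition binding on membranes from CHO-K1 cells stably expressing cloned human receptor, using radiolabeled somatostatin in 50 mM Tris-HCl pH 7.8 with EGTA, MgCl2 and protease inhibitors. Unlabeled compounds tested from 0.01 nM to 10,000 nM.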

Chain of SSTR5 (P35346 whole entry): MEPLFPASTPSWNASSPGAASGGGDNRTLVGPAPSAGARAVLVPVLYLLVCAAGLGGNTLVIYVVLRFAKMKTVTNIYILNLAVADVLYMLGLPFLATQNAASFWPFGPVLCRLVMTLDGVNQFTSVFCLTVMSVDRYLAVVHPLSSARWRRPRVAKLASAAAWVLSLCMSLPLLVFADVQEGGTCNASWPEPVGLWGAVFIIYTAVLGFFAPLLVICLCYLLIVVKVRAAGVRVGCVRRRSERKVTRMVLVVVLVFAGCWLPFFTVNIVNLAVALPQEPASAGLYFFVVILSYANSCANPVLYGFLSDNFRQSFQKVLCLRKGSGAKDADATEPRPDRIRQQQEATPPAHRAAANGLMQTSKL

Structure (SMILES)	IC50 [nM]
CCOc1ccc(-c2ccc(F)c(F)c2F)c(CN2CCC3(CC2)CN(c2ccc(C(=O)O)cc2)C(=O)O3)c1 [Example 4-5, 4-{8-[(4-Ethoxy-2′,3′,4′-trifluorobiphenyl-2-yl)methyl]-2-oxo-1-oxa-3,8-diazaspiro[4.5]dec-3-yl}benzoic acid, TFA salt]	0.556
CC(C)Oc1ccc(-c2ccc(F)c(F)c2F)c(CN2CCC3(CC2)CN(c2ccc(C(=O)O)cc2)C(=O)O3)c1 [Example 4-6, 4-{8-[(4-(Prop-2-yloxy)-2′,3′,4′-trifluorobiphenyl-2-yl)methyl]-2-oxo-1-oxa-3,8-diazaspiro[4.5]dec-3-yl}benzoic acid, TFA salt]	0.546
CCOc1cc(CN2CCC3(CC2)CN(c2ccc(C(=O)O)cc2)C(=O)O3)c(-c2ccc(F)c(F)c2F)cc1C [Example 4-7, 4-{8-[(4-Ethoxy-2′,3′,4′-trifluoro-5-methylbiphenyl-2-yl)methyl]-2-oxo-1-oxa-3,8-diazaspiro[4.5]dec-3-yl}benzoic acid, TFA salt]	0.409
CCOc1cc(CN2CCC3(CC2)CN(c2ccc(C(=O)O)cc2C)C(=O)O3)c(-c2ccc(F)c(F)c2F)cc1C [Example 4-8, 4-{8-[(4-Ethoxy-2′,3′,4′-trifluoro-5-methylbiphenyl-2-yl)methyl]-2-oxo-1-oxa-3,8-diazaspiro[4.5]dec-3-yl}-3-methylbenzoic acid, TFA salt]	0.474
O=C(O)c1ccc(N2CC3(CCN(Cc4cc(C(F)(F)F)ccc4-c4ccc(F)c(F)c4F)CC3)OC2=O)cc1 [Example 4-9, 4-(2-Oxo-8-{[2′,3′,4′-trifluoro-4-(trifluoromethyl)biphenyl-2-yl]methyl}-1-oxa-3,8-diazaspiro[4.5]dec-3-yl)benzoic acid, TFA salt]	0.439
O=C(O)c1ccc(N2CC3(CCN(Cc4cc(C(F)(F)F)ccc4-c4ccc(F)nc4)CC3)OC2=O)cc1 [Example 4-10, 4-{8-[2-(6-Fluoropyridin-3-yl)-5-(trifluoromethyl)benzyl]-2-oxo-1-oxa-3,8-diazaspiro[4.5]dec-3-yl}benzoic acid, TFA salt]	1.49
CCOc1cc(CN2CCC3(CC2)CN(c2ccc(C(=O)O)cc2)C(=O)O3)c(-c2cc(F)c(F)cc2F)cc1C [Example 4-11, 4-{8-[(4-Ethoxy-2′,4′,5′-trifluoro-5-methylbiphenyl-2-yl)methyl]-2-oxo-1-oxa-3,8-diazaspiro[4.5]dec-3-yl}benzoic acid, TFA salt]	0.152

Now from value to molecule:

IC50 [nM]	Structure (SMILES)
0.188	CCOc1cc(CN2CCC3(CC2)CN(c2ccc(C(=O)O)c(C)c2)C(=O)O3)c(-c2ccc(F)c(F)c2F)cc1C [Example 4-12, 4-{8-[(4-Ethoxy-2′,3′,4′-trifluoro-5-methylbiphenyl-2-yl)methyl]-2-oxo-1-oxa-3,8-diazaspiro[4.5]dec-3-yl}-2-methylbenzoic acid, TFA salt]
0.983	CCOc1ccc(-c2ccc(F)c(F)c2F)c(CN2CCC3(CC2)CN(c2ccc(C(=O)O)c(C)c2)C(=O)O3)c1 [Example 4-13, 4-{8-[(4-Ethoxy-2′,3′,4′-trifluorobiphenyl-2-yl)methyl]-2-oxo-1-oxa-3,8-diazaspiro[4.5]dec-3-yl}-2-methylbenzoic acid, TFA salt]
0.407	CCOc1cc(CN2CCC3(CC2)CN(c2ccc(C(=O)O)cc2)C(=O)O3)c(-c2ccc(F)nc2)cc1C [Example 4-14, 4-{8-[5-Ethoxy-2-(6-fluoropyridin-3-yl)-4-methylbenzyl]-2-oxo-1-oxa-3,8-diazaspiro[4.5]dec-3-yl}benzoic acid, TFA salt]
218	O=C(O)c1ccc(N2CC3(CCN(Cc4cnc(-c5ccccc5)nc4-c4ccc(F)cc4)CC3)OC2=O)cc1 [Example 4-15, 4-(8-{[4-(4-Fluorophenyl)-2-phenylpyrimidin-5-yl]methyl}-2-oxo-1-oxa-3,8-diazaspiro[4.5]dec-3-yl)benzoic acid, TFA salt]
